Experimental data: the kinase profiling compilation of Christmann-Franck et al. (2016)

What follows are molecules tested against RPS6KA1 KD1 KD2 (human) (UniProt Q15418) (assay: radiometric filter-binding kinase assay, Kinase HotSpot). Conditions: compound 0.5 µM; ATP 10 µM.

**Q.** Which residual activity does the source give for `COc1cc2nccc(Oc3ccc(NC(=S)NC(=O)c4ccccc4C)cc3)c2cc1OC` here?
**A.** 97.3%

**Q.** How did the residual activity turn out when `NC(=O)c1ccc(N(C(N)=O)c2c(F)cccc2F)nc1-c1ccc(F)cc1F` was run?
**A.** 109%

**Q.** How did the residual activity turn out when `O=c1cc(-c2cccc3c2Sc2ccccc2S3)oc(N2CCOCC2)c1` was run?
**A.** 97.6%

**Q.** How did the residual activity turn out when `CC(C)(C)c1nc2c3ccc(F)cc3c3c(=O)[nH]ccc3c2[nH]1` was run?
**A.** 38.6%

Each molecule was assayed against TSSK2 (human) (UniProt Q96PF2) in the same assay as above. Conditions: compound 0.5 µM; ATP 10 µM.
TSSK2 (human), sequence (Q96PF2 whole entry, looked up): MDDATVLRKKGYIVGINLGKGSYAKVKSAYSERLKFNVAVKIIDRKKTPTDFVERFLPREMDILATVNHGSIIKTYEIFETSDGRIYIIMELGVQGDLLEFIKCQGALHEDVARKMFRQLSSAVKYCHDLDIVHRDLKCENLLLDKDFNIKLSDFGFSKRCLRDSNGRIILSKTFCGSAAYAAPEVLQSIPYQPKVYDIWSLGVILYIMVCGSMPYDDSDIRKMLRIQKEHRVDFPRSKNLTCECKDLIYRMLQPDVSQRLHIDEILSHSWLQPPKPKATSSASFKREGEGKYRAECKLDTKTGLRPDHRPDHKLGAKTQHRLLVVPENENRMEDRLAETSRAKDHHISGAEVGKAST

**Q.** With `CC(C)n1cnc2c(Nc3cccc(Cl)c3)nc(NCCO)nc21` as the molecule, how does the residual activity read?
**A.** 107%

**Q.** Which residual activity does the source give for `COc1cc2nccc(Oc3ccc(NC(=S)NC(=O)c4ccccc4C)cc3)c2cc1OC` here?
**A.** 86.7%

**Q.** How did the residual activity turn out when `NC(=O)c1ccc(N(C(N)=O)c2c(F)cccc2F)nc1-c1ccc(F)cc1F` was run?
**A.** 88.6%

**Q.** How did the residual activity turn out when `O=c1cc(-c2cccc3c2Sc2ccccc2S3)oc(N2CCOCC2)c1` was run?
**A.** 97.7%

**Q.** How did the residual activity turn out when `CC(C)(C)c1nc2c3ccc(F)cc3c3c(=O)[nH]ccc3c2[nH]1` was run?
**A.** 92.5%

The molecules below were run against MAP3K5 (human) (UniProt Q99683) in the same assay as above. Conditions: compound 0.5 µM; ATP 10 µM.
MAP3K5 (human), sequence (Q99683 whole entry, looked up): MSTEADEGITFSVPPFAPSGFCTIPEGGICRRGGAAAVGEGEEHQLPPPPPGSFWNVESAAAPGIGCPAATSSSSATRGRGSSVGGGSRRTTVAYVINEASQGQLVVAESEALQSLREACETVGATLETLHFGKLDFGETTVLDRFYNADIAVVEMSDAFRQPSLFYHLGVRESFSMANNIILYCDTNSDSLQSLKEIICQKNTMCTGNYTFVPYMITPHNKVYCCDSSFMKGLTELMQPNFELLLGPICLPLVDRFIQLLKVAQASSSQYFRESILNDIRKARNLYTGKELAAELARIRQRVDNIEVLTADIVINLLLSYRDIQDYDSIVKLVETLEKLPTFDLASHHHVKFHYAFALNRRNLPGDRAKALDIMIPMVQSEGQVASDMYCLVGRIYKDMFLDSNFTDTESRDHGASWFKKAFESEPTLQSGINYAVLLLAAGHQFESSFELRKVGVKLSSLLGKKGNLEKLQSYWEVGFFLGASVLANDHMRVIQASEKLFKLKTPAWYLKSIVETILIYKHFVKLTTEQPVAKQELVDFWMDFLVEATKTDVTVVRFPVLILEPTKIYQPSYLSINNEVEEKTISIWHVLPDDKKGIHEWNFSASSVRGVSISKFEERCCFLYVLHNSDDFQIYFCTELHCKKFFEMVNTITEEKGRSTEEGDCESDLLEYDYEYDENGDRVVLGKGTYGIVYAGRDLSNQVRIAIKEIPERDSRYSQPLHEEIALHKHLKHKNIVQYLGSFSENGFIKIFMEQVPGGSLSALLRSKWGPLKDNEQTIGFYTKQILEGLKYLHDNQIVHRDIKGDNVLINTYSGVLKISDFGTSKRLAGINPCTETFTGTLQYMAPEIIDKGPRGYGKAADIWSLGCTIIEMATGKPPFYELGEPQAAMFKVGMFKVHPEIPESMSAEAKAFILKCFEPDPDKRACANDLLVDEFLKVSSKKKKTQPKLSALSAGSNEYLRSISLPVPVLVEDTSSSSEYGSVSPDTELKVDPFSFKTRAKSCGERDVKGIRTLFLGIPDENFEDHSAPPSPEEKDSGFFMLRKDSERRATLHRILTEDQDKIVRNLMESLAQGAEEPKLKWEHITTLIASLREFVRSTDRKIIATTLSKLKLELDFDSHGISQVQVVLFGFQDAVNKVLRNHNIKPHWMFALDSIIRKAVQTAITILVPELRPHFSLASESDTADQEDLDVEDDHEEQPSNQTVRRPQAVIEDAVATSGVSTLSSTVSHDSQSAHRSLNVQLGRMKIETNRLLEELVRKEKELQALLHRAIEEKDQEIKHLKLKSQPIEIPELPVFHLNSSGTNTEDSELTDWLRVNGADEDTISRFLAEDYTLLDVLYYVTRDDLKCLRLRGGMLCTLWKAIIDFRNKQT

**Q.** For `CC(C)n1cnc2c(Nc3cccc(Cl)c3)nc(NCCO)nc21`, which residual activity is on record?
**A.** 114%

**Q.** `COc1cc2nccc(Oc3ccc(NC(=S)NC(=O)c4ccccc4C)cc3)c2cc1OC` was tested. Which residual activity did it give?
**A.** 106%

**Q.** For `NC(=O)c1ccc(N(C(N)=O)c2c(F)cccc2F)nc1-c1ccc(F)cc1F`, which residual activity is on record?
**A.** 102%

**Q.** With `O=c1cc(-c2cccc3c2Sc2ccccc2S3)oc(N2CCOCC2)c1` as the molecule, how does the residual activity read?
**A.** 104%

**Q.** Which residual activity does the source give for `CC(C)(C)c1nc2c3ccc(F)cc3c3c(=O)[nH]ccc3c2[nH]1` here?
**A.** 84.4%

These molecules were tested against EPHB2 (human) (UniProt P29323) in the same assay as above. Conditions: compound 0.5 µM; ATP 10 µM.
EPHB2 (human), sequence (P29323 whole entry, looked up): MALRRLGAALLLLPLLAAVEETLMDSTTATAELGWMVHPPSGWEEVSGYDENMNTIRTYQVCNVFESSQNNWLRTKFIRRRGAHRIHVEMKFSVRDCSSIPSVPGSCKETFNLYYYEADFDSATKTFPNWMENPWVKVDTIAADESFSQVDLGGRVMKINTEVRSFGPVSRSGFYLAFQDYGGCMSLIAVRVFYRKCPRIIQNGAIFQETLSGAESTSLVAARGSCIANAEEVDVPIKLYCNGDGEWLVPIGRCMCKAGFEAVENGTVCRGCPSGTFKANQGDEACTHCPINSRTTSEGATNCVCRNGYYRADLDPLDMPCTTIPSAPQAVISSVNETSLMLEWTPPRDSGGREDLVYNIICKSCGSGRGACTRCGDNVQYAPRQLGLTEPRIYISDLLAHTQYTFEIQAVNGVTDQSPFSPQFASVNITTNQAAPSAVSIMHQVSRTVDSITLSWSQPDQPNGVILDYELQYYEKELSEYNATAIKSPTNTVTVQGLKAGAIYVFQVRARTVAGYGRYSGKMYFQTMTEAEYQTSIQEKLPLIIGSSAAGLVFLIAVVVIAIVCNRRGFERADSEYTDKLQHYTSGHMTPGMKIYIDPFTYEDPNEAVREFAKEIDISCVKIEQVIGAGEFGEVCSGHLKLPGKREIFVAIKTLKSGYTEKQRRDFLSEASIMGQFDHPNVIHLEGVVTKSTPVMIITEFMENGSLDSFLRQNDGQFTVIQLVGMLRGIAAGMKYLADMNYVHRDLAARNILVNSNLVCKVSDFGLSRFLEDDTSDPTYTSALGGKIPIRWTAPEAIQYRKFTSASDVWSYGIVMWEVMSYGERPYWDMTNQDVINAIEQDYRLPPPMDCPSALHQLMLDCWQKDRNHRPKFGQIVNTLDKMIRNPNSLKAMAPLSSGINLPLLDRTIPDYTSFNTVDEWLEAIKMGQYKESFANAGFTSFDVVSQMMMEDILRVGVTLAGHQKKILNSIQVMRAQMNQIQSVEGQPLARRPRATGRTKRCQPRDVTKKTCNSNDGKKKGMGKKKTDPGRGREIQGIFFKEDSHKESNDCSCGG

**Q.** With `CC(C)n1cnc2c(Nc3cccc(Cl)c3)nc(NCCO)nc21` as the molecule, how does the residual activity read?
**A.** 89.8%

**Q.** For `COc1cc2nccc(Oc3ccc(NC(=S)NC(=O)c4ccccc4C)cc3)c2cc1OC`, which residual activity is on record?
**A.** 93.5%

**Q.** Which residual activity does the source give for `NC(=O)c1ccc(N(C(N)=O)c2c(F)cccc2F)nc1-c1ccc(F)cc1F` here?
**A.** 107%

**Q.** For `O=c1cc(-c2cccc3c2Sc2ccccc2S3)oc(N2CCOCC2)c1`, which residual activity is on record?
**A.** 102%

**Q.** Which residual activity does the source give for `CC(C)(C)c1nc2c3ccc(F)cc3c3c(=O)[nH]ccc3c2[nH]1` here?
**A.** 92.8%

Each molecule was assayed against CLK1 (human) (UniProt P49759) in the same assay as above. Conditions: compound 0.5 µM; ATP 10 µM.
CLK1 (human), sequence (P49759 whole entry, looked up): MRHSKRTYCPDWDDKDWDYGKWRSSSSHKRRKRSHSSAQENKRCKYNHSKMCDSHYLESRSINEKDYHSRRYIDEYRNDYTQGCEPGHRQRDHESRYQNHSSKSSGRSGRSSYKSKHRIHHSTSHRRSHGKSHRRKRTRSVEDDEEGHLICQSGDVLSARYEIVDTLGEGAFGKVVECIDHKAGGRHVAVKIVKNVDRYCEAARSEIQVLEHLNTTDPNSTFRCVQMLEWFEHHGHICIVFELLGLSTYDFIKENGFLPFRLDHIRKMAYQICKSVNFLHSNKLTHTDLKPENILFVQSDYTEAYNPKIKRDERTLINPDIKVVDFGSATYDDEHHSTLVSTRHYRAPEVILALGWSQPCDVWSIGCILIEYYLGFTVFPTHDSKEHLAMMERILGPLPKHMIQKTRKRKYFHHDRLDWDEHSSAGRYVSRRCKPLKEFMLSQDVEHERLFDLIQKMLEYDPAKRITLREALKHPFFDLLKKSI

**Q.** How did the residual activity turn out when `CC(C)n1cnc2c(Nc3cccc(Cl)c3)nc(NCCO)nc21` was run?
**A.** 77.9%

**Q.** `COc1cc2nccc(Oc3ccc(NC(=S)NC(=O)c4ccccc4C)cc3)c2cc1OC` was tested. Which residual activity did it give?
**A.** 89.9%

**Q.** How did the residual activity turn out when `NC(=O)c1ccc(N(C(N)=O)c2c(F)cccc2F)nc1-c1ccc(F)cc1F` was run?
**A.** 108%

**Q.** How did the residual activity turn out when `O=c1cc(-c2cccc3c2Sc2ccccc2S3)oc(N2CCOCC2)c1` was run?
**A.** 103%

**Q.** Which residual activity does the source give for `CC(C)(C)c1nc2c3ccc(F)cc3c3c(=O)[nH]ccc3c2[nH]1` here?
**A.** 81.6%

The molecules below were run against CAMK2G (human) (UniProt Q13555) in the same assay as above. Conditions: compound 0.5 µM; ATP 10 µM.
CAMK2G (human), sequence (Q13555 whole entry, looked up): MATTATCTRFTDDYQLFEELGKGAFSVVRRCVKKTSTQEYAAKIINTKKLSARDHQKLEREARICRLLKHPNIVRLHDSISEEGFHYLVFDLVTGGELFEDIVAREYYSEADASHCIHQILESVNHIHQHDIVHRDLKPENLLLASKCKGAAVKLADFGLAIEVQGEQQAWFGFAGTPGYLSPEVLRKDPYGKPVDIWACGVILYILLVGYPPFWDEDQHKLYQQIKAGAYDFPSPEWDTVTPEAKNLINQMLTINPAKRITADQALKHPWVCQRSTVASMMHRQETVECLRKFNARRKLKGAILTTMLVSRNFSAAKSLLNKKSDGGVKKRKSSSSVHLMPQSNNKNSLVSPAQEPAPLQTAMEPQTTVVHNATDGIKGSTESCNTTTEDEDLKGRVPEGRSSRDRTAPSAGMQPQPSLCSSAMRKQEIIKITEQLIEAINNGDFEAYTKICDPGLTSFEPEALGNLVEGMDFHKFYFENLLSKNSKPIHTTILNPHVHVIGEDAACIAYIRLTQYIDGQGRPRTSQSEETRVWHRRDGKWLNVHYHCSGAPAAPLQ

**Q.** Which residual activity does the source give for `CC(C)n1cnc2c(Nc3cccc(Cl)c3)nc(NCCO)nc21` here?
**A.** 106%

**Q.** For `COc1cc2nccc(Oc3ccc(NC(=S)NC(=O)c4ccccc4C)cc3)c2cc1OC`, which residual activity is on record?
**A.** 103%

**Q.** For `NC(=O)c1ccc(N(C(N)=O)c2c(F)cccc2F)nc1-c1ccc(F)cc1F`, which residual activity is on record?
**A.** 105%

**Q.** `O=c1cc(-c2cccc3c2Sc2ccccc2S3)oc(N2CCOCC2)c1` was tested. Which residual activity did it give?
**A.** 106%

**Q.** Which residual activity does the source give for `CC(C)(C)c1nc2c3ccc(F)cc3c3c(=O)[nH]ccc3c2[nH]1` here?
**A.** 72.8%

What follows are molecules tested against SYK (human) (UniProt P43405) in the same assay as above. Conditions: compound 0.5 µM; ATP 10 µM.

**Q.** For `CC(C)n1cnc2c(Nc3cccc(Cl)c3)nc(NCCO)nc21`, which residual activity is on record?
**A.** 85.1%

**Q.** Which residual activity does the source give for `COc1cc2nccc(Oc3ccc(NC(=S)NC(=O)c4ccccc4C)cc3)c2cc1OC` here?
**A.** 95.5%

**Q.** How did the residual activity turn out when `NC(=O)c1ccc(N(C(N)=O)c2c(F)cccc2F)nc1-c1ccc(F)cc1F` was run?
**A.** 110%

**Q.** How did the residual activity turn out when `O=c1cc(-c2cccc3c2Sc2ccccc2S3)oc(N2CCOCC2)c1` was run?
**A.** 106%

**Q.** For `CC(C)(C)c1nc2c3ccc(F)cc3c3c(=O)[nH]ccc3c2[nH]1`, which residual activity is on record?
**A.** 79%

What follows are molecules tested against NLK (human) (UniProt Q9UBE8) in the same assay as above. Conditions: compound 0.5 µM; ATP 10 µM.
NLK (human), sequence (Q9UBE8 whole entry, looked up): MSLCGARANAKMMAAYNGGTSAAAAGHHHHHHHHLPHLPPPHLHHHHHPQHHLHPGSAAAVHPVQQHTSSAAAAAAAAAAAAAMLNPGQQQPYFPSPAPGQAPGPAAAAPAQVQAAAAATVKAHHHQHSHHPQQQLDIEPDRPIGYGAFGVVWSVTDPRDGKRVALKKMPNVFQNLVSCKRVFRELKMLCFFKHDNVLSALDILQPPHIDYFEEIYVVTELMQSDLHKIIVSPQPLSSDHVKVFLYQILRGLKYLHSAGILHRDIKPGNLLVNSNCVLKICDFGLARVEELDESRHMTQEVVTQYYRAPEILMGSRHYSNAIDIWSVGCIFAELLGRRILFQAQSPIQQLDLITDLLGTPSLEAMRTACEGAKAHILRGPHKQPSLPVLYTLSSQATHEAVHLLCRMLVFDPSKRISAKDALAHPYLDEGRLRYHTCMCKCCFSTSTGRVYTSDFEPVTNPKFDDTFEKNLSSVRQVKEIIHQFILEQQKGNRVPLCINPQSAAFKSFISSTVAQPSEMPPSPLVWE

**Q.** `CC(C)n1cnc2c(Nc3cccc(Cl)c3)nc(NCCO)nc21` was tested. Which residual activity did it give?
**A.** 102%

**Q.** How did the residual activity turn out when `COc1cc2nccc(Oc3ccc(NC(=S)NC(=O)c4ccccc4C)cc3)c2cc1OC` was run?
**A.** 100%

**Q.** For `NC(=O)c1ccc(N(C(N)=O)c2c(F)cccc2F)nc1-c1ccc(F)cc1F`, which residual activity is on record?
**A.** 15.8%

**Q.** For `O=c1cc(-c2cccc3c2Sc2ccccc2S3)oc(N2CCOCC2)c1`, which residual activity is on record?
**A.** 108%

**Q.** For `CC(C)(C)c1nc2c3ccc(F)cc3c3c(=O)[nH]ccc3c2[nH]1`, which residual activity is on record?
**A.** 26.1%

What follows are molecules tested against CDK6 CCND3 (human) (UniProt P30281+Q00534) in the same assay as above. Conditions: compound 0.5 µM; ATP 10 µM.
CDK6 CCND3 (human), sequence (P30281 whole entry, looked up): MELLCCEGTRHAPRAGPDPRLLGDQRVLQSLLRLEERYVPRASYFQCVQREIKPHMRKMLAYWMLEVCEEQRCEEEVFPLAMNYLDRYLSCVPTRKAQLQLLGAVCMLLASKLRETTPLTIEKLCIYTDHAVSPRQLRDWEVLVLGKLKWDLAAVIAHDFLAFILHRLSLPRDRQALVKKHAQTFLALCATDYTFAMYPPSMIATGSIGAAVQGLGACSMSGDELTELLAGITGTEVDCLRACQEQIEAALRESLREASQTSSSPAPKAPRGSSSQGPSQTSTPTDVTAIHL
CDK6 CCND3 (human), sequence (Q00534 whole entry, looked up): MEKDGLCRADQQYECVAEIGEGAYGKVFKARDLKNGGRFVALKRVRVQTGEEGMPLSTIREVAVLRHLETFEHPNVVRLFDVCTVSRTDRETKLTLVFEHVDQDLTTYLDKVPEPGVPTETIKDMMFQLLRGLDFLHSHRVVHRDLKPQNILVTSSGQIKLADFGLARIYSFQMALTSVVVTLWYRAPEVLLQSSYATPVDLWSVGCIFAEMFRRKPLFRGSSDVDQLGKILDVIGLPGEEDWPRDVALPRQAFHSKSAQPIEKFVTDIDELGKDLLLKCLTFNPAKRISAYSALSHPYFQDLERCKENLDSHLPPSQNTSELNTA

**Q.** `CC(C)n1cnc2c(Nc3cccc(Cl)c3)nc(NCCO)nc21` was tested. Which residual activity did it give?
**A.** 89.7%

**Q.** With `COc1cc2nccc(Oc3ccc(NC(=S)NC(=O)c4ccccc4C)cc3)c2cc1OC` as the molecule, how does the residual activity read?
**A.** 97.3%

**Q.** For `NC(=O)c1ccc(N(C(N)=O)c2c(F)cccc2F)nc1-c1ccc(F)cc1F`, which residual activity is on record?
**A.** 119%

**Q.** With `O=c1cc(-c2cccc3c2Sc2ccccc2S3)oc(N2CCOCC2)c1` as the molecule, how does the residual activity read?
**A.** 106%

**Q.** With `CC(C)(C)c1nc2c3ccc(F)cc3c3c(=O)[nH]ccc3c2[nH]1` as the molecule, how does the residual activity read?
**A.** 87.8%

The molecules below were run against PRKX (human) (UniProt P51817) in the same assay as above. Conditions: compound 0.5 µM; ATP 10 µM.

**Q.** `CC(C)n1cnc2c(Nc3cccc(Cl)c3)nc(NCCO)nc21` was tested. Which residual activity did it give?
**A.** 96.4%

**Q.** For `COc1cc2nccc(Oc3ccc(NC(=S)NC(=O)c4ccccc4C)cc3)c2cc1OC`, which residual activity is on record?
**A.** 100%

**Q.** How did the residual activity turn out when `NC(=O)c1ccc(N(C(N)=O)c2c(F)cccc2F)nc1-c1ccc(F)cc1F` was run?
**A.** 123%

**Q.** Which residual activity does the source give for `O=c1cc(-c2cccc3c2Sc2ccccc2S3)oc(N2CCOCC2)c1` here?
**A.** 113%

**Q.** `CC(C)(C)c1nc2c3ccc(F)cc3c3c(=O)[nH]ccc3c2[nH]1` was tested. Which residual activity did it give?
**A.** 79.2%

The molecules below were run against PRKACA (human) (UniProt P17612) in the same assay as above. Conditions: compound 0.5 µM; ATP 10 µM.

**Q.** `CC(C)n1cnc2c(Nc3cccc(Cl)c3)nc(NCCO)nc21` was tested. Which residual activity did it give?
**A.** 99.5%

**Q.** `COc1cc2nccc(Oc3ccc(NC(=S)NC(=O)c4ccccc4C)cc3)c2cc1OC` was tested. Which residual activity did it give?
**A.** 91.8%
